This note sets out measurements from ChEMBL document CHEMBL5579896, “Discovery of 2-Aryl-4-aminoquinazolin-Based LSD1 Inhibitors to Activate Immune Response in Gastric Cancer” (J Med Chem, 2024).

The subject of data set [1] is BGC-823. Description: Effect on H3K4me3 methylation in LSD1 knockout human BGC-823 cells at 2 to 8 uM by Western blotting analysis. The format is functional, cell-based. As to conditions: dose 2-8 µM. (Immunoblotting shows a protein as a band on a membrane.)
The subject of data set [2] is BGC-823. Description: Anticancer activity against human BGC-823 cells cocultured with human monocytes assessed as increase in CD3/CD28 activated T-cell killing response incubated for 5 days by microscopic analysis. Format: functional, cell-based. As to conditions: dose 2-8 µM, time 5.0 day.
Data set [3] in a line: Cmax in ICR mouse at 40 mg/kg, po measured upto 24 hrs by LC-MS/MS analysis. Format: ADME, organism-based. As to conditions: in vivo.
Data set [4] relates to MFC. Description: Downregulation of PD-L1 expression in MFC cells at 2 to 8 uM by Western blotting analysis. As to conditions: Mus musculus, dose 2-8 µM, TDE = time-dependent effect. Format: functional, cell-based.
Data set [5] concerns BGC-823. Description: Anticancer activity against LSD-1 knockout human BGC-823 cells cocultured with human monocytes assessed as increase in CD3/CD28 activated T-cell killing response at 2 to 8 uM incubated for 5 days by microscopic analysis. The format is functional, cell-based. As to conditions: dose 2-8 µM, time 5.0 day.
A short description of data set [6]: Toxicity in mouse implanted with MFC assessed as lung damage at 10 to 40 mg/kg/day, po administered daily for 2 weeks and measured every 2 days by H and E staining based assay. Format: organism-based. As to conditions: in vivo, 336 h, dose 10-40 mg/kg/day.
Data set [7] concerns BGC-823. Description: Downregulation of PD-L1 expression in human BGC-823 cells at 2 to 8 uM by Western blotting analysis. Format: functional, cell-based. As to conditions: dose 2-8 µM, TDE = time-dependent effect.
Data set [8] is described as follows: Toxicity in mouse implanted with MFC assessed as liver damage at 10 to 40 mg/kg/day, po administered daily for 2 weeks and measured every 2 days by H and E staining based assay. Format: organism-based. As to conditions: in vivo, 336 h, dose 10-40 mg/kg/day.
In data set [9] the target is T1, Amine oxidase [flavin-containing] A (Homo sapiens, UniProt P21397).
T1 sequence (P21397 whole entry): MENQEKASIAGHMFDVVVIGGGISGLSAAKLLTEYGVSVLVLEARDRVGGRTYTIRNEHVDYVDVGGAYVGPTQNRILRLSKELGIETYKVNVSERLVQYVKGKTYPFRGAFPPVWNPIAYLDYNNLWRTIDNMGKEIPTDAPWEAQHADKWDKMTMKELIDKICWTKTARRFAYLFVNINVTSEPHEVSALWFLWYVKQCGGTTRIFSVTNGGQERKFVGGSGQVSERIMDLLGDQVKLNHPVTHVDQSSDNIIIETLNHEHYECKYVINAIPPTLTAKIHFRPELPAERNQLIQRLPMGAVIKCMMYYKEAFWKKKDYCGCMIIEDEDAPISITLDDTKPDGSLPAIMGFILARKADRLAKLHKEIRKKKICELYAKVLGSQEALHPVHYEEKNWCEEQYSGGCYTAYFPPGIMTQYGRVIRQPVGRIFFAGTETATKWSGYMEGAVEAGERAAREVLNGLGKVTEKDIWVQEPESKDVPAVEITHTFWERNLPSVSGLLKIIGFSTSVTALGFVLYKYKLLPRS
Description: Inhibition of MAO-A (unknown origin).

Data set [10] relates to MFC. Description: Downregulation of PD-L1 expression in MFC cells implanted in mouse at 10 to 40 mg/kg/day, po administered daily for 2 weeks and measured every 2 days by Western blotting analysis. Format: functional, organism-based. As to conditions: dose 10-40 mg/kg/day.
For data set [11], the target named is T2, Lysine-specific histone demethylase 2 (Homo sapiens) (UniProt Q8NB78).
T2 sequence (whole entry): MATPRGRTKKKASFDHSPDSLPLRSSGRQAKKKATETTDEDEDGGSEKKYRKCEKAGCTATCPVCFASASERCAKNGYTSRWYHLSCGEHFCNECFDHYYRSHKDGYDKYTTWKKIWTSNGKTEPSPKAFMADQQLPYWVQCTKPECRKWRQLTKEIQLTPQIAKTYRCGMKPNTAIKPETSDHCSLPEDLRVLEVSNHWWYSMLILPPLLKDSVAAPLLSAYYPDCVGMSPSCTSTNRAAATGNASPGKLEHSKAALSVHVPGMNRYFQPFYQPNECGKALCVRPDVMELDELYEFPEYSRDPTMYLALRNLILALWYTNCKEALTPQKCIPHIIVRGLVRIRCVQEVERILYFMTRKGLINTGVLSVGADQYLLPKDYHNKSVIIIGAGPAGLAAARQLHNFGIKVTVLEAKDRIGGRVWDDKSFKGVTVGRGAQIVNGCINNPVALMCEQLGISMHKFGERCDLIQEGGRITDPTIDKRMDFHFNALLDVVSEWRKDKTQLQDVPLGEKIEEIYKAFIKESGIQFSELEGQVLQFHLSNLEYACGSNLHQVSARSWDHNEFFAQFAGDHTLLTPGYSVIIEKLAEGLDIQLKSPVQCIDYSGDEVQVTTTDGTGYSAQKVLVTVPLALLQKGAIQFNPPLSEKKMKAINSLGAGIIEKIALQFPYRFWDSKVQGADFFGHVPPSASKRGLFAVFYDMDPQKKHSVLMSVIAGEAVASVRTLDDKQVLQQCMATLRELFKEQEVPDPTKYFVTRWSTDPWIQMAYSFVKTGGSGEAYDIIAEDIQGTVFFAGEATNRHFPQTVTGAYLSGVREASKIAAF
Description: Inhibition of LSD2 (unknown origin) at 10 uM relative to control.

Data set [12] deals with T3, MAO-A (Amine oxidase [flavin-containing] A) (Homo sapiens, UniProt P21397).
T3 sequence (P21397 whole entry): T1 sequence (P21397 whole entry)
Description: Inhibition of MAO-A (unknown origin) at 10 uM relative to control.

Data set [13] concerns BGC-823. Description: Effect on LSD1 expression in human BGC-823 cells by Western blotting analysis. Format: functional, cell-based.
A short description of data set [14]: Drug uptake in ICR mouse plasma at 40 mg/kg, po. As to conditions: in vivo. Format: ADME, organism-based.
Data set [15] is described as follows: Toxicity in mouse implanted with MFC assessed as reduction in body weight at 10 to 40 mg/kg/day, po administered daily for 2 weeks and measured every 2 days. The format is organism-based. As to conditions: in vivo, 336 h, dose 10-40 mg/kg/day.
Data set [16] concerns BGC-823. Description: Downregulation of PD-L1 expression in LSD1 knockout human BGC-823 cells at 2 to 8 uM incubated for 5 days by flow cytometry analysis. The format is functional, cell-based. As to conditions: dose 2-8 µM, time 5.0 day. In general terms: In flow cytometry, cells or beads pass a laser one at a time.
Data set [17] is described as follows: Toxicity in mouse implanted with MFC assessed as kidney damage at 10 to 40 mg/kg/day, po administered daily for 2 weeks and measured every 2 days by H and E staining based assay. The format is organism-based. As to conditions: in vivo, 336 h, dose 10-40 mg/kg/day.
The target in data set [18] is Programmed cell death protein 1/Programmed cell death 1 ligand 1 (Homo sapiens) (UniProt Q15116+Q9NZQ7). Description: Inhibition of PD-1 to PD-L1 protein-protein interaction in human BGC-823 cells incubated for 5 days by DAPI staining based confocal microscopic analysis. The format is cell-based. As to conditions: dose 2-8 µM, time 5.0 day.
Data set [19] concerns MFC. Description: Antitumor activity against MFC cells implanted in mouse assessed as reduction in tumor size at 10 to 40 mg/kg/day, po administered daily for 2 weeks and measured every 2 days. Format: functional, organism-based. As to conditions: dose 10-40 mg/kg/day.

Activity calls are given as the source filed them. The calls are words filed in the database; no cut-off is given here.

As a reminder, the Cmax is the maximum level reached in the sampled fluid or tissue. In general, IC50 refers to the concentration that inhibits the measured activity by half. A low value points to greater potency in that assay. As a reminder, the inhibition is the change of the read-out against control, counted positive when it falls. In the case of `CCN(CC)c1ccc(Nc2nc(-c3ccc(S(C)(=O)=O)cc3)nc3ccccc23)cc1`, the outcome with BGC-823 [1], with BGC-823 [5], in the data set on BGC-823 [13] and with BGC-823 [16] was inactive. The Activity result in the data set on BGC-823 [2] was “Dose-Dependent Effect”; with MFC [4], “Tde”; in data set [6] it was “Non-Toxic”; in the data set on BGC-823 [7] it was “Tde”; in data set [8], “Non-Toxic”; in [15] it was “Non-Toxic”. Moreover, the Activity entry in data set [17] is listed as “Non-Toxic”. In addition, in data set [3], the Cmax came out at 613 ng/mL. Besides, the half-inhibitory concentration (IC50) in [9] was above 10 µM. The result with MFC [10] and in the data set with MFC [19] was Active. In addition, the inhibition was below 10% in [11] and “Dose-Dependent Effect” in data set [18]. Also, the inhibition at 10 µM in [12] was below 10%. Also, in data set [14], the Drug uptake entry was “Active”.
